Like-named read-outs stand apart in the source and are kept apart here.
Key:
[1] = system: TNFα production in RAW 264.7 macrophage cell line; assay: Mouse TNF alpha quantification assay (LPS-stimulated macrophages, ELISA); format: cell-based; details: RAW264.7, RAW 264.7 murine leukemia virus transformed macrophage cell lines, LPS stimulation, read-out: TNF-α % Inhibition at 30 μM
[2] = system: IL6 production in RAW 264.7 macrophage cell line; assay: Mouse IL6 quantification assay (LPS-stimulated macrophages, ELISA); format: cell-based; details: RAW264.7, RAW 264.7 murine leukemia virus transformed macrophage cell lines, LPS stimulation, read-out: IL-6 % Inhibition at 30 μM
[3] = molecular target: KRas G12D/Q61H double mutant (Homo sapiens (Human), UniProt P01116, G12D/Q61H); assay: Ras GTP binding domain inhibition assay (labeled GTP)
Method in brief: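 Inhibition of labeled GTP binding is measured on immobilized His-KRas protein in Tris buffer pH 7.5 with 1 mM MgCl2 and 1 mM DTT.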

[4] = 20 μM, read-out: KRas G12D Q61H % Inh.
[5] = 20 μM compound, KRas G12D/Q61H double mutant, read-out: % Inhibition at 20 μM of K-Ras mutant and wild-type protein, KRas G12D Q61H
[6] = 20 μM compound, read-out: % Inhibition at 20 μM KRas G12D Q61H

KRas G12D/Q61H double mutant, sequence (P01116-2 other isoform, or with tags, fused parts or gaps G12D/Q61H): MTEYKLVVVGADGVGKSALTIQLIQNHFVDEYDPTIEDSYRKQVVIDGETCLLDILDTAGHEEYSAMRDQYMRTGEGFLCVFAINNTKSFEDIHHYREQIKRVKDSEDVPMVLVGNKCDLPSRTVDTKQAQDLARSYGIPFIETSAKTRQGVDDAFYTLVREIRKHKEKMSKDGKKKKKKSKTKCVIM

SMILES	inhibition at 30 µM [1]	inhibition at 30 µM [2]	further results
O=C(Cc1ccc(-n2cnnn2)cc1)Nc1nnc(-c2ccccn2)[nH]1 [drawing 1927]	1 to 25%	0%	–
COCCNc1nc(-c2nccn2C)nc2sc(-c3ccccc3)c(-c3ccc(OC)cc3)c12 [drawing 2416]	51 to 75%	76 to 100%	–
O=c1nc(-c2ccccn2)[nH]c2c1sc1ccccc12 [drawing 2030]	76 to 100%	76 to 100%	–
Oc1nc(-c2ccccn2)nc2c(Br)csc12 [drawing 2100]	76 to 100%	76 to 100%	–
Oc1nc(-c2ccccn2)nc2c1CCCN2 [drawing 2070]	1 to 25%	26 to 50%	–
Oc1nc(-c2ccccn2)nc2cc(-c3ccccc3Cl)sc12 [drawing 2383]	0%	26 to 50%	–
COc1cccc(-c2csc3c(O)nc(-c4ccccn4)nc23)c1 [drawing 2264]	26 to 50%	76 to 100%	–
Oc1nc(-c2ccccn2)nc2c(-c3ccc(Cl)c(Cl)c3)csc12 [drawing 2301]	0%	26 to 50%	–
COc1cc(OC)cc(N2CCN(C(=O)c3csc4c(O)nc(-c5ccccn5)nc34)CC2)c1 [drawing 2183]	1 to 25%	26 to 50%	–
Oc1nc(-c2ccccn2)nc2c(-c3ccccc3Cl)csc12 [drawing 2121]	76 to 100%	76 to 100%	–
COCC(C)Nc1nc(-c2ccccn2)nc(C(=O)NCCCc2c[nH]cn2)c1Oc1ccccc1 (stereo not shown) [drawing 2377]	0%	1 to 25%	–
O=C(c1csc2c(O)nc(-c3ccccn3)nc12)N1CCC(N2CCCC2=O)CC1 [drawing 2106]	26 to 50%	1 to 25%	–
Oc1nc(-c2ccncn2)nc2c(-c3cccc(C(F)(F)F)c3)csc12 [drawing 2434]	0%	26 to 50%	–
Nc1nc(O)c2scc(C(=O)N3CCC(N4CCCC4=O)CC3)c2n1 [drawing 2094]	0%	1 to 25%	–
Cc1c(-c2csc3c(O)nc(-c4ccccn4)nc23)cnn1C [drawing 2327]	51 to 75%	76 to 100%	–
COCCNc1nc(-c2ccccn2)nc(-c2cccc(OCCN(C)C)c2)c1Oc1ccccc1 [drawing 2356]	1 to 25%	0%	–
Cc1ccc(-c2cc3nc(-c4ccccn4)nc(O)c3s2)cc1 [drawing 2382]	1 to 25%	1 to 25%	–
Cc1sc2c(O)nc(-c3nccn3C)nc2c1-c1ccccc1 [drawing 2421]	26 to 50%	76 to 100%	–
O=C(NCCc1cccnc1)c1cc2nc(-c3ccccn3)nc(O)c2s1 [drawing 2236]	1 to 25%	26 to 50%	–
Cc1cccc(C(=O)Nc2nnc(-c3ccccn3)[nH]2)n1 [drawing 1976]	0%	1 to 25%	–
O=C(NCCc1cccnc1)c1csc2c(O)nc(-c3ccccn3)nc12 [drawing 2115]	0%	26 to 50%	–
CN(Cc1cnn(C)c1)c1nc(-c2ccccn2)nc2scc(-c3ccccc3)c12 [drawing 2141]	26 to 50%	76 to 100%	–
Cc1ccc(OC2CCCC2)c(-c2csc3c(O)nc(-c4ccccn4)nc23)c1 [drawing 2237]	51 to 75%	76 to 100%	–

SMILES	inhibition at 30 µM [1]	inhibition at 30 µM [2]	further results
O=C(COCc1ccccc1Cl)Nc1nnc(-c2ccccn2)[nH]1 [drawing 2519]	–	–	inhibition at 20 µM [3, 4]: 51 to 75%
Cc1c(C(=O)N(CCc2ccccc2)Cc2ccccc2)cccc1[N+](=O)[O-]	–	–	inhibition at 20 µM [3, 5]: 25 to 50%
CS(=O)(=O)Nc1nc(-c2ccccn2)nc2scc(-c3ccccc3)c12	–	–	inhibition at 20 µM [3, 6]: 1 to 25%
COC(=O)c1ccc(CCSc2nnc(COc3cccc(C)c3)o2)cc1	–	–	inhibition at 20 µM [3, 5]: 25 to 50%
Cc1ccc(C)c(OCc2nnc(SCc3c(C#N)c(C)nn3-c3ccccc3)o2)c1	–	–	inhibition at 20 µM [3, 5]: 25 to 50%
O=C(CCn1ccc2ccccc21)Nc1nnc(-c2ccccn2)[nH]1 [drawing 2462]	–	–	inhibition at 20 µM [3, 4]: 51 to 75%
CCOc1cc(CN(C(=O)CCc2nc(-c3ccsc3)no2)C2CC2)ccc1OC(F)(F)F	–	–	inhibition at 20 µM [3, 5]: 25 to 50%
N#Cc1ccc(-c2nnc(CN3CCOc4ccccc4C3)o2)cc1	–	–	inhibition at 20 µM [3, 6]: 25 to 50%
O=C(Cc1ccc(F)cc1)Nc1nnc(-c2ccccn2)[nH]1 [drawing 2515]	–	–	inhibition at 20 µM [3, 4]: 51 to 75%
CCc1ccc(OCC(=O)Nc2nnc(-c3ccccn3)[nH]2)cc1	–	–	inhibition at 20 µM [3, 6]: 25 to 50%
Cc1ccc(CC(C#N)c2c(C#N)c(N)nc(N3CCCCC3)c2C#N)cc1 (stereo not shown)	–	–	inhibition at 20 µM [3, 5]: 1 to 25%
CN(C)S(=O)(=O)c1ccc(CN2CCCCCC2/C=C/c2ccccc2)o1 (stereo not shown)	–	–	inhibition at 20 µM [3, 5]: 25 to 50%
COC(=O)c1c(C)sc2nc(-c3ccccn3)nc(N)c12 [drawing 3804]	–	–	inhibition at 20 µM ([3]; at 20 μM, read-out: KRas G12D Q61H % Inh.): 51 to 75%
O=C(c1nccc2ccccc12)N(Cc1nccn1C(F)F)C1CC1	–	–	inhibition at 20 µM [3, 6]: 1 to 25%
O=C(Nc1cccc(C(=O)Nc2nnc(-c3ccccn3)[nH]2)c1)c1cccnc1	–	–	inhibition at 20 µM [3, 6]: 25 to 50%
O=C(Nc1nnc(-c2ccccn2)[nH]1)C1CCCC1 [drawing 2489]	–	–	inhibition at 20 µM [3, 4]: 51 to 75%
Cc1cc(C2CCCN2c2cc(C(F)(F)F)nc3ncnn23)no1 (stereo not shown)	–	–	inhibition at 20 µM [3, 6]: 1 to 25%
CC1CCc2sc(C(=O)Nc3nnc(-c4ccccn4)[nH]3)cc2C1 (stereo not shown) [drawing 2531]	–	–	inhibition at 20 µM [3, 4]: 51 to 75%
O=c1[nH]c(-c2ncccn2)nc2ccc(-c3cccc(C(F)(F)F)c3)cc12	–	–	inhibition at 20 µM [3, 6]: 25 to 50%
Nc1nc(O)c2scc(C(=O)NCCc3cccnc3)c2n1 [drawing 2670]	–	–	inhibition at 20 µM [3, 6]: 1 to 25%
COc1ccccc1CN(Cc1cccs1)C(=O)c1ccc(COC(C)C)cc1	–	–	inhibition at 20 µM [3, 5]: 25 to 50%
Cc1cc(C)n(-c2ccc(C(=O)Nc3nnc(-c4ccccn4)[nH]3)cn2)n1	–	–	inhibition at 20 µM [3, 6]: 25 to 50%
CN(Cc1ccccc1C#N)Cc1ccccc1N1CCCCC1	–	–	inhibition at 20 µM [3, 5]: 25 to 50%

SMILES	inhibition at 30 µM [1]	inhibition at 30 µM [2]	further results
N#CCc1ccc(OCC(=O)Nc2nnc(-c3ccccn3)[nH]2)cc1 [drawing 2552]	–	–	inhibition at 20 µM [3, 4]: 51 to 75%
CCOCc1c(C(=O)N(Cc2cccs2)Cc2ccccc2OC)oc2ccccc12	–	–	inhibition at 20 µM [3, 6]: 1 to 25%
CC1CCN(C(=O)c2csc3c(O)nc(N)nc23)CC1 [drawing 2658]	–	–	inhibition at 20 µM [3, 6]: 1 to 25%
O=C(Nc1nnc(-c2ccccn2)[nH]1)c1ccn(-c2cccc(F)c2)n1 [drawing 2468]	–	–	inhibition at 20 µM [3, 4]: 51 to 75%
Cc1cc(C)c(-c2csc(C3CC3)n2)cc1C	–	–	inhibition at 20 µM [3, 5]: 25 to 50%
Oc1nc(-c2ccccn2)nc2c1ncn2-c1ccccn1 [drawing 2698]	–	–	inhibition at 20 µM [3, 6]: 25 to 50%
COc1cc(CN(C)C(=O)Cc2ccc(Br)cc2)ccc1OCc1ccccc1	–	–	inhibition at 20 µM [3, 5]: 1 to 25%
COC(=O)c1ccc(CN2CCN(c3cccc(C(F)(F)F)c3)CC2)cc1	–	–	inhibition at 20 µM [3, 5]: 25 to 50%
O=C(Nc1nnc(-c2ccccn2)[nH]1)C1CCCN(c2ncccn2)C1 (stereo not shown) [drawing 2514]	–	–	inhibition at 20 µM [3, 4]: 51 to 75%
c1ccc(-c2csc3nc(-c4ccccn4)nc(NCc4ccccn4)c23)cc1	–	–	inhibition at 20 µM [3, 6]: 25 to 50%
O=C(c1ccoc1)N1CCC(Nc2cc(Cl)ccc2OCC2CCC2)CC1	–	–	inhibition at 20 µM [3, 5]: 25 to 50%
Cc1ccc(C)c(NC(=O)c2ccccc2OCCOc2ccccc2)c1	–	–	inhibition at 20 µM [3, 6]: 25 to 50%
NC(=O)CCN1CCOC(c2nc(-c3ccccc3)cs2)C1 (stereo not shown)	–	–	inhibition at 20 µM [3, 5]: 1 to 25%
COC(=O)C(C)CN(Cc1ccccc1)c1nc(C(F)(F)F)ccc1C#N (stereo not shown) [drawing 2631]	–	–	inhibition at 20 µM [3, 4]: 25 to 50%
CCN(C(=O)c1cccc(-n2cccn2)c1)c1ccc(C#N)c(Cl)c1	–	–	inhibition at 20 µM [3, 5]: 1 to 25%
O=C(Nc1nnc(-c2ccccn2)[nH]1)c1ccc(Oc2cccnc2)cc1 [drawing 2550]	–	–	inhibition at 20 µM [3, 4]: 51 to 75%
NC(=O)c1cc(-c2csc(N3CCCCC3)n2)ccc1O	–	–	inhibition at 20 µM [3, 5]: 1 to 25%
CS(=O)(=O)CCCNC(=O)c1csc2nc(-c3ccccn3)nc(N3CCOCC3)c12 [drawing 2811]	–	–	inhibition at 20 µM [3, 6]: 1 to 25%
COc1ccc(CCNC(=O)COC(=O)c2c(NC(=O)C(C)(C)C)sc(C)c2C)cc1	–	–	inhibition at 20 µM [3, 5]: 25 to 50%
O=S(=O)(c1ccccc1)N1CCCc2c(O)nc(-c3ccccn3)nc21 [drawing 2652]	–	–	inhibition at 20 µM [3, 6]: 1 to 25%
Cc1ccccc1OCCN(C)c1ccc([N+](=O)[O-])c(OC(F)F)c1	–	–	inhibition at 20 µM [3, 5]: 25 to 50%
COc1ccc(CN2CCN(C(=O)c3csc4c(O)nc(-c5ccccn5)nc34)CC2)cc1OC	–	–	inhibition at 20 µM [3, 6]: 25 to 50%

Source: patent US10940139B2, “Compounds that interact with the Ras superfamily for the treatment of cancers, inflammatory diseases, rasopathies, and fibrotic disease” (Shy Therapeutics LLC, priority 2017, dated 2021)
